Measured values as given in paper PMC3404744 (Molecular Pharmaceutics, 2011).

How the values were obtained:
[1] = system: 12 recombinant human UGT isoforms; test: Phenotyping using 12 recombinant UGTs; assay type: in vitro ADME; settings: by CLint
UGT1A1 [2] = molecular target: T1, UGT1A1 (Homo sapiens, UniProt P22309); test: Glucuronidation kinetics with recombinant human UGT1A1; assay type: in vitro ADME; settings: for Glucuronide isomers formed by UGT1A1: recombinant UGT1A1
T1 sequence (P22309 26-533): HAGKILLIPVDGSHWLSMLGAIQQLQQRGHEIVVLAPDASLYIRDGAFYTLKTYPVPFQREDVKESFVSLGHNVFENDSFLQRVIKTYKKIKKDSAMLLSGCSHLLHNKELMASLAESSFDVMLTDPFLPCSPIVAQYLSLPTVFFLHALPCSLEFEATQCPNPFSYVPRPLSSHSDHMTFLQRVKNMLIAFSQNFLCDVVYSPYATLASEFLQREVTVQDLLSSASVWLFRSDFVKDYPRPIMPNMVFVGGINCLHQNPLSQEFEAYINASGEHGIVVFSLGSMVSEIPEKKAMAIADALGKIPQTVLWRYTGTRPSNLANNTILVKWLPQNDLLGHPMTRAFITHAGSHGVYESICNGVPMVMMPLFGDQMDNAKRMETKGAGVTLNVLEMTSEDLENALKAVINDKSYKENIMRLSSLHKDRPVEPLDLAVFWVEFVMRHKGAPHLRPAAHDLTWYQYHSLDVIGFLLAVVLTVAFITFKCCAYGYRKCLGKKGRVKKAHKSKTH

[3] = system: pooled human liver microsomes (pHLM); test: Glucuronidation kinetic profile in pooled human liver microsomes; assay type: in vitro ADME; settings: flavonoids 4′-O-glucuronidation, SN-38 glucuronidation
UGT1A1 [4] = molecular target: T1, UGT1A1; assay type: in vitro ADME
UGT1A9 = molecular target: T2, UGT1A9 (Homo sapiens, UniProt O60656); test: Glucuronidation kinetics with recombinant human UGT1A9; assay type: in vitro ADME; settings: 10 μM
T2 sequence (O60656 26-530): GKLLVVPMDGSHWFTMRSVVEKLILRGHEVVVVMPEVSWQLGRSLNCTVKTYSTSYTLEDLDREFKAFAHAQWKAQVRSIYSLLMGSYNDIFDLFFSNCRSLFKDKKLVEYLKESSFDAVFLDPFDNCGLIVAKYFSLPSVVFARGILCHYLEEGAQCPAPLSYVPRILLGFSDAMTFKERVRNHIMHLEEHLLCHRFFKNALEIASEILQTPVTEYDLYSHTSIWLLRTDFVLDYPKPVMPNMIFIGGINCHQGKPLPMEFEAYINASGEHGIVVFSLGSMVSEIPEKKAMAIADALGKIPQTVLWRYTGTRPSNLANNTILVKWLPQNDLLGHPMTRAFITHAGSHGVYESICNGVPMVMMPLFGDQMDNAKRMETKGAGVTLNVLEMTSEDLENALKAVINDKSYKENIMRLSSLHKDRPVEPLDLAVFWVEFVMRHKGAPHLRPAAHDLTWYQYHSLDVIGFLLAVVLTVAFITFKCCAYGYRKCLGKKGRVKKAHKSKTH

[5] = after a standard therapy; cited from earlier work

Structure (SMILES) | Main isoforms glucuronidating the flavonoid [1] | Km for recombinant UGT1A1 (4′-O-glucuronidation) compared with pooled HLM (UGT1A1 [2]) | Glucuronide isomers formed by UGT1A1 (UGT1A1 [2]) | Pattern of kinetic profile [3] | Glucuronidation in pHLM correlated with UGT1A1 activities (RAF approach) (UGT1A1 [4]) [%] | UGT1A9 activity, folds less than that of UGT1A1 (UGT1A9) [folds] | In vivo concentration [5] [µM]
O=c1c(O)c(-c2ccc(O)c(O)c2)oc2ccccc12 [33′4′THF, 3,3′,4′-trihydroxyflavone] | UGT1A1, 1A7 and 1A9 | essentially identical | 3′-O- and 4′-O-glucuronide | substrate inhibition | – | – | –
O=c1c(O)c(-c2ccc(O)cc2)oc2ccc(O)cc12 [364′THF, 3,6,4′-trihydroxyflavone] | UGT1A1, 1A7 and 1A9 | essentially identical | 3-O-, 6-O-, and 4′-O-glucuronide | substrate inhibition | – | – | –
CCc1c2c(nc3ccc(O)cc13)-c1cc3c(c(=O)n1C2)COC(=O)[C@]3(O)CC [SN-38, 7-ethyl-10-hydroxycamptothecin] | – | – | – | substrate inhibition | 103 ± 8 | ~5 | < 0.1
